Results on 20 compounds are retold here after US8436012B2, “Imidazopyridin-2-one derivatives” (Daiichi Sankyo Company, Limited, priority 2008, dated 2013).

One assay deals with T1, human mTOR (Homo sapiens, UniProt P42345).
T1 construct: the portion corresponding to 1362-2549aa at the C terminus of human mTOR; made in house
Nature of the assay: mTOR Kinase Activity Inhibition Test. Conditions: His-tagged mTOR (1362C), biotinylated peptide substrate, ATP, 3 hours at room temperature, fluorescence resonance energy transfer 665 nm/620 nm; read-out: IC50 value of mTOR enzyme inhibitory activity. Format: biochemical. The essentials: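 Purified His-tagged human mTOR (1362–2549aa, from HEK293) was used with biotinylated peptide (8 μg/mL in enzyme solution) in HEPES pH 7.5 with 20 mM MnCl2. Compounds were diluted in 20 μM ATP solution, and the reaction ran 3 h at RT. Phospho-S6K(Thr389) HTRF was read as the 665/620 nm ratio, and IC50 came from % inhibition versus controls.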

A further assay deals with WM-266-4 cells. Nature of the assay: Cell Proliferation Inhibitory Test. The following applies: Homo sapiens, 72 h, cultured three days with test compound, MTT, read-out: 50% cell proliferation inhibitory activity (GI50 value). In kind it is cell-based. In short, it runs like this:
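Cells cultured overnight, then exposed to serially diluted compound for three days; cell amount read by MTT. GI50 solved from 100×[(T−T0)/(C−T0)]=50, with T0 the value at time of compound addition and C the untreated three-day control.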

Structures are written as SMILES.

T1 sequence (P42345 1362-2549): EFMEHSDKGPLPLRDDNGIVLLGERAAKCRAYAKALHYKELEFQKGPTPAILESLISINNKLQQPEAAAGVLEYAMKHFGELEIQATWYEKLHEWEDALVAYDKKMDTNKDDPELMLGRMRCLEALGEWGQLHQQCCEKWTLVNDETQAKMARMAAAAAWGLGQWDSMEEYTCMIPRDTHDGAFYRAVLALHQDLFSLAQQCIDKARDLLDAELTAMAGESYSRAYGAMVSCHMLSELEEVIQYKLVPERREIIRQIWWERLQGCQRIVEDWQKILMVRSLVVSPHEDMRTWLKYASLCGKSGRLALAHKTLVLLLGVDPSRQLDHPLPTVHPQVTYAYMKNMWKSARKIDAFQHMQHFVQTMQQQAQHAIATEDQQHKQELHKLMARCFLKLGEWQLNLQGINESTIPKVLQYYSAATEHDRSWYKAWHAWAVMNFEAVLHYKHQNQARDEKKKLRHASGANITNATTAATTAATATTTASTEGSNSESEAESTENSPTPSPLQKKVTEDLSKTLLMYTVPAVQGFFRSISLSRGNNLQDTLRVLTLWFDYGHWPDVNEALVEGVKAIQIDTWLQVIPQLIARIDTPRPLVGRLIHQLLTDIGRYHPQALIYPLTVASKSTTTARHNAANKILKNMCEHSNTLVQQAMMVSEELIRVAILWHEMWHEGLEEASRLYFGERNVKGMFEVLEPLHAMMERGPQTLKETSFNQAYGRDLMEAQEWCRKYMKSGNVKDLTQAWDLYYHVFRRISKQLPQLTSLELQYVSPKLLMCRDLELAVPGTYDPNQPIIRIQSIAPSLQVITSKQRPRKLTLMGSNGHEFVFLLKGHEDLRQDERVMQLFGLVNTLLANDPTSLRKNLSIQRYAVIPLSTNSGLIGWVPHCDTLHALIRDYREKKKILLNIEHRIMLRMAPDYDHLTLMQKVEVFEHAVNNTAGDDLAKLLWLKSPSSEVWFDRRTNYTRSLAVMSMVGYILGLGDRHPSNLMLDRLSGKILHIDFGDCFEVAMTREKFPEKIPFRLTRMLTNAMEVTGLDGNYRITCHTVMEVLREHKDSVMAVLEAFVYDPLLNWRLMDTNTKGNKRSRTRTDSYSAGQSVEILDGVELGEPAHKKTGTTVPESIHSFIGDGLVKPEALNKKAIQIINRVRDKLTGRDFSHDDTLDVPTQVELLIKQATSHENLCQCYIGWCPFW

For orientation: IC50 means the concentration that inhibits the measured activity by half. Consider `O=c1[nH]c2ncc(-c3cnc4[nH]ccc4c3)cc2n1CC1CCS(=O)(=O)CC1` [Example 97, 1-[(1,1-Dioxidotetrahydro-2H-thiopyran-4-yl)methyl]-6-(1H-pyrrolo[2,3-b]pyridin-5-yl)-1,3-dihydro-2H-imidazo[4,5-b]pyridin-2-one], for which, on human mTOR, the IC50 is below 0.05 µM. The GI50 in the assay with WM-266-4 cells was 3 to 25 µM.
The corresponding values for `CO[C@H]1CC[C@H](Cn2c(=O)[nH]c3ncc(-c4cnc5[nH]ccc5c4)cc32)CC1` [Example 98, 1-[(trans-4-Methoxycyclohexyl)methyl]-6-(1H-pyrrolo[2,3-b]pyridin-5-yl)-1,3-dihydro-2H-imidazo[4,5-b]pyridin-2-one] are below 0.05 µM and below 3 µM.
On the same counts, the results for `CO[C@H]1CC[C@@H](Cn2c(=O)[nH]c3ncc(-c4cnc5[nH]ccc5c4)cc32)CC1` [Example 99, 1-[(cis-4-Methoxycyclohexyl)methyl]-6-(1H-pyrrolo[2,3-b]pyridin-5-yl)-1,3-dihydro-2H-imidazo[4,5-b]pyridin-2-one] are below 0.05 µM and below 3 µM.
On the same counts, the results for `N#CC1(Cn2c(=O)[nH]c3ncc(-c4cnc5[nH]ccc5c4)cc32)CCOCC1` [Example 100, 4-{[2-Oxo-6-(1H-pyrrolo[2,3-b]pyridin-5-yl)-2,3-dihydro-1H-imidazo[4,5-b]pyridin-1-yl]methyl}tetrahydro-2H-pyran-4-carbonitrile] are below 0.05 µM and below 3 µM.
Consider `O=c1[nH]c2ncc(-c3cnc4[nH]ccc4c3)cc2n1C[C@H]1CC[C@H](O)CC1` [Example 101, 1-[(trans-4-Hydroxycyclohexyl)methyl]-6-(1H-pyrrolo[2,3-b]pyridin-5-yl)-1,3-dihydro-2H-imidazo[4,5-b]pyridin-2-one], for which the IC50 on human mTOR was below 0.05 µM. For the same compound, the GI50 with WM-266-4 cells is below 3 µM.
On the same counts, the results for `O=c1[nH]c2ncc(-c3cnc4[nH]ccc4c3)cc2n1C[C@H]1CC[C@@H](O)CC1` [Example 102, 1-[(cis-4-Hydroxycyclohexyl)methyl]-6-(1H-pyrrolo[2,3-b]pyridin-5-yl)-1,3-dihydro-2H-imidazo[4,5-b]pyridin-2-one] are below 0.05 µM and below 3 µM.
In the case of `O=c1[nH]c2ncc(-c3cnc4[nH]ccc4c3)cc2n1CC1CCC(F)(F)CC1` [Example 103, 1-[(4,4-Difluorocyclohexyl)methyl]-6-(1H-pyrrolo[2,3-b]pyridin-5-yl)-1,3-dihydro-2H-imidazo[4,5-b]pyridin-2-one], at human mTOR, the IC50 was below 0.05 µM. Further, the GI50 in the assay with WM-266-4 cells was below 3 µM.
Regarding `O=c1[nH]c2ncc(-c3cnc4[nH]ccc4c3)cc2n1CC1CCOC1` (stereo not shown) [Example 107, 6-(1H-Pyrrolo[2,3-b]pyridin-5-yl)-1-(tetrahydrofuran-3-ylmethyl)-1,3-dihydro-2H-imidazo[4,5-b]pyridin-2-one], the IC50 at human mTOR is below 0.05 µM. For the same compound, the GI50 in the assay on WM-266-4 cells is below 3 µM.
On the same counts, the results for `O=c1[nH]c2ncc(-c3cnc4[nH]ccc4c3)cc2n1CC1COCCN1` (stereo not shown) [Example 108, 1-(Morpholin-3-ylmethyl)-6-(1H-pyrrolo[2,3-b]pyridin-5-yl)-1,3-dihydro-2H-imidazo[4,5-b]pyridin-2-one] are below 0.05 µM and below 3 µM.
Take `CN1C(=O)COC[C@@H]1Cn1c(=O)[nH]c2ncc(-c3cnc4[nH]ccc4c3)cc21` [Example 109, 1-{[(3S)-4-Methyl-5-oxomorpholin-3-yl]methyl}-6-(1H-pyrrolo[2,3-b]pyridin-5-yl)-1,3-dihydro-2H-imidazo[4,5-b]pyridin-2-one]: the IC50 on human mTOR is below 0.05 µM. For the same compound, the GI50 in the assay with WM-266-4 cells lay in the range of 3 to 25 µM.
The corresponding values for `O=C1COC(Cn2c(=O)[nH]c3ncc(-c4cnc5[nH]ccc5c4)cc32)CN1` (stereo not shown) [Example 110, 1-[(5-Oxomorpholin-2-yl)methyl]-6-(1H-pyrrolo[2,3-b]pyridin-5-yl)-1,3-dihydro-2H-imidazo[4,5-b]pyridin-2-one] are below 0.05 µM and 3 to 25 µM.
The corresponding values for `CO[C@H]1CC[C@@H](Cn2c(=O)[nH]c3ncc(-c4cnc5[nH]cc(Cl)c5c4)cc32)CC1` [Example 115, 6-(3-Chloro-1H-pyrrolo[2,3-b]pyridin-5-yl)-1-[(cis-4-methoxycyclohexyl)methyl]-1,3-dihydro-2H-imidazo[4,5-b]pyridin-2-one] are below 0.05 µM and below 3 µM.
For `O=c1[nH]c2ncc(-c3cnc4[nH]cc(Cl)c4c3)cc2n1C[C@H]1CC[C@@H](O)CC1` [Example 116, 6-(3-Chloro-1H-pyrrolo[2,3-b]pyridin-5-yl)-1-[(cis-4-hydroxycyclohexyl)methyl]-1,3-dihydro-2H-imidazo[4,5-b]pyridin-2-one], at human mTOR, the IC50 is below 0.05 µM. Also, the GI50 with WM-266-4 cells was below 3 µM.
On the same counts, the results for `O=c1[nH]c2ncc(-c3cnc4[nH]ccc4c3Cl)cc2n1C[C@H]1COCCO1` [Example 117, 6-(4-Chloro-1H-pyrrolo[2,3-b]pyridin-5-yl)-1-[(2S)-1,4-dioxan-2-ylmethyl]-1,3-dihydro-2H-imidazo[4,5-b]pyridin-2-one] are below 0.05 µM and below 3 µM.
On the same counts, the results for `O=c1[nH]c2ncc(-c3cnc4[nH]cc(F)c4c3)cc2n1C[C@H]1COCCO1` [Example 118, 1-[(2S)-1,4-Dioxan-2-ylmethyl]-6-(3-fluoro-1H-pyrrolo[2,3-b]pyridin-5-yl)-1,3-dihydro-2H-imidazo[4,5-b]pyridin-2-one] are below 0.05 µM and below 3 µM.
The corresponding values for `Cc1nc2[nH]c(=O)n(C[C@H]3COCCO3)c2cc1-c1cnc2[nH]cc(F)c2c1` [Example 119, 1-[(2S)-1,4-Dioxan-2-ylmethyl]-6-(3-fluoro-1H-pyrrolo[2,3-b]pyridin-5-yl)-5-methyl-1,3-dihydro-2H-imidazo[4,5-b]pyridin-2-one] are below 0.05 µM and below 3 µM.
As for `O=c1[nH]c2ncc(-c3cnc4[nH]ccc4c3F)cc2n1C[C@H]1COCCO1` [Example 120, 1-[(2S)-1,4-Dioxan-2-ylmethyl]-6-(4-fluoro-1H-pyrrolo[2,3-b]pyridin-5-yl)-1,3-dihydro-2H-imidazo[4,5-b]pyridin-2-one], the IC50 at human mTOR is below 0.05 µM. In the assay on WM-266-4 cells, the GI50 is below 3 µM.
On the same counts, the results for `O=c1[nH]c2ncc(-c3cnc4c(c3)CCN4)cc2n1C[C@H]1COCCO1` [Example 121, 6-(2,3-Dihydro-1H-pyrrolo[2,3-b]pyridin-5-yl)-1-[(2S)-1,4-dioxan-2-ylmethyl]-1,3-dihydro-2H-imidazo[4,5-b]pyridin-2-one] are below 0.05 µM and below 3 µM.
On to `O=c1[nH]c2ncc(-c3cnc4[nH]ccc4c3C(F)(F)F)cc2n1C[C@H]1COCCO1` [Example 122, 1-[(2S)-1,4-Dioxan-2-ylmethyl]-6-(4-(trifluoromethyl)-1H-pyrrolo[2,3-b]pyridin-5-yl)-1,3-dihydro-2H-imidazo[4,5-b]pyridin-2-one], for which, at human mTOR, the IC50 is below 0.05 µM. The GI50 in the assay with WM-266-4 cells was below 3 µM.
Take `CCc1c(-c2cnc3[nH]c(=O)n(C[C@H]4COCCO4)c3c2)cnc2[nH]ccc12` [Example 123, 1-[(2S)-1,4-Dioxan-2-ylmethyl]-6-(4-ethyl-1H-pyrrolo[2,3-b]pyridin-5-yl)-1,3-dihydro-2H-imidazo[4,5-b]pyridin-2-one]: the IC50 on human mTOR was below 0.05 µM. Moreover, the GI50 in the assay on WM-266-4 cells was below 3 µM.
